Assay results taken from patent US20230050846A1, “TREATMENT OF HEPATIC AND CARDIOVASCULAR DISORDERS” (LIFESEARCH, priority 2019, published 2023).
Peptide text beside a SMILES is read from it. * marks the point of attachment. Palmitoyl = CCCCCCCCCCCCCCCC(=O)*

System: wild-type C57B/L6J mice
Experiment: Biliary lipid secretions, gallbladder cannulation, wild-type mice
Format: in vivo, mouse
Settings: for bile flux / biliary secretion of bile acids / biliary secretion of cholesterol: C57BL/6 mice, vs PBS or SCR
Protocol: Wild-type C57B/L6J male mice were purchased from Janvier Labs (Le Genest Saint Isle, France). LDLR knock-out mice (males, C57B/L6J background) were obtained from The Jackson Laboratory (Bar Harbor, Me., USA). Mice were caged in animal rooms under specific pathogen free conditions at the animal facility of Rangueil (Anexplo platform, US006, Toulouse, France) with a light/dark schedule of 12 h/12 h and were fed ad libitum with a normal chow diet (#V1535 R/M-H, Ssniff, Germany). All animal experimental procedures were conducted in accordance with institutional guidelines on animal experimentation approved by the local ethical committee of animal care and are conformed to the guidelines from Directive 2010/63/EU of the European Parliament on the protection of animals used for scientific purposes or the NIH guideline.
Depending of experiments, 8 weeks old mice were intraperitoneally injected with PBS, the peptide of formula (I), the peptide of formula (II) and SCR. Details of peptide use, dose and mode of administration and time course are specified in the description of FIG. 11. Given the short elimination half-life of the peptide of formula (I), osmotic pumps were also used to insure a continuous delivery for 14 days. Briefly, 200 μL osmotic pump were filled with 10 mg/mL of the peptide of formula (I) in PBS and were implanted subcutaneously into the mice according to the manufacturer's instructions (Alzet®, model pump #2002), to insure the peptide of formula (I) release at an estimated rate of 0.5 μL/h, which corresponds to an estimated amount of delivery of 5 mg of the peptide of formula (I) per kilogram of body weight per day (5 mg/kg BW/day). Following treatments, mice were fasted for 2 h and were then anesthetized by intra-peritoneal injection of ketamine and xylazine hydrochloride. The common bile duct was ligated close to the duodenum and the gallbladder was punctured and cannulated with a polyethylene-10 catheter. After 30 min of stabilization, newly secreted bile was collected for 30 min. During bile collection, body temperature was stabilized using a temperature mattress. Bile flow (expressed in μL/min/100 g of body weight) was determined gravimetrically assuming a density of 1 g/mL for bile. At the end of experiment, blood was collected and mice were sacrificed by cervical dislocation.
For bile acid analysis, 1 μL of bile samples was diluted with 99 μL of milliQ water then incubated with the work reagent (6 mg NAD, 0.5 M hydrazine hydrate buffer, 0.05 M Na-pyrophosphate) for 4 min. The mix was then incubated with a start reagent (0.03 M Tris-EDTA; 0.3 U/mL 3-alpha-OH steroid dehydrogenase) and measured for 30 min, under excitation of 340/330 nm and emission of 440/420 nm. For phospholipid analysis, 1 μL of bile samples was diluted with 49 μL of milliQ water then incubated with the work reagent (100 mM MOPS, pH 8; 0.55 mM HVA; 20 mM CaCl; 11 U/mL Phospholipase-D; 1.66 U/mL Peroxidase; 0.1% Triton X-100) for 4 min. The mix was then incubated with a start reagent (1 M MOPS, pH 8, 50 U/mL Choline oxidase) and measured for 67.5 min, under excitation of 340/330 and emission of 440/40. For cholesterol analysis, 1 μL of bile samples was diluted with 29 μL of milliQ water then was incubated with the work reagent (100 mM MOPS, pH 8, 0.25 mM HVA; 0.1% Triton X-100) for 4 min. The mix was then incubated with a start reagent (0.1 M MOPS, pH 8, 0.06 U/mL cholesterol oxidase, 0.15 U/mL cholesterol esterase, 0.45 U/mL Peroxidase, 0.06 mM Taurocholate) and measured for 45 min, under excitation of 340/330 nm and emission of 440/420 nm. Secretion values of bile acids, phospholipids and cholesterol were calculated by multiplying concentration and bile flow values, and expressed as nmol/min/100 g body weight (BW).

[1] = continuous delivery (osmotic pump, sc) 14 days, 5 mg/kg BW/day

Compound	bile flux (intraperitoneal bolus 25 mg/kg)	biliary secretion of bile acids (intraperitoneal bolus 25 mg/kg)	biliary secretion of cholesterol (intraperitoneal bolus 25 mg/kg)	biliary flux and biliary lipid secretion, compared with the 25 mg/kg dose (bolus injection 12 mg/kg)	biliary cholesterol secretion [1]	biliary flux [1]	time following injection up to which the effect on bile flux and biliary secretion is maintained (intraperitoneal bolus 25 mg/kg)
CCCCCCCCCCCCCCCC(=O)NCCCC[C@H](NC(=O)[C@H](CCC(=O)O)NC(=O)[C@H](CCCNC(=N)N)NC(=O)[C@H](CO)NC(=O)[C@H](CCC(N)=O)NC(=O)[C@H](C)NC(=O)[C@H](CCCNC(=N)N)NC(=O)[C@H](Cc1ccccc1)NC(=O)[C@H](Cc1ccc(O)cc1)NC(=O)[C@H](CCCNC(=N)N)NC(=O)[C@H](CCC(=O)O)NC(=O)[C@H](CCC(=O)O)NC(=O)[C@H](CCC(=O)O)NC(=O)[C@H](C)NC(=O)[C@H](CCC(N)=O)NC(=O)[C@H](CCC(=O)O)NC(=O)[C@H](CCCNC(=N)N)NC(=O)[C@H](CCCCN)NC(=O)CNC(=O)[C@H](Cc1ccccc1)NC(=O)[C@H](C)NC(=O)CNC(=O)CNC(=O)[C@H](C)NC(=O)[C@H](CCC(=O)O)NC(=O)[C@H](CCCNC(=N)N)NC(=O)[C@@H](NC(=O)[C@H](CO)NC(=O)CNC(=O)[C@H](C)NC(=O)CNC(=O)[C@H](CCCNC(=N)N)NC(C)=O)[C@@H](C)CC)C(N)=O [peptide of formula (II), CH3CO-[SEQ ID NO: 1]-K-[palmitoyl]-NH2] (Ac-RGAGSIREAGGAFGKREQAEEERYFRAQSREK(Palmitoyl)-NH2)	stimulated	stimulated	stimulated	–	–	–	–
Ac-RGAGSIREAGGAFGKREQAEEERYFRAQSRE-NH2 [peptide of formula (I), CH3CO-[SEQ ID NO: 1]-NH2]	significant increase	significant increase	significant increase	less efficient	stimulated	stimulated	up to 4 h
